Assays:
[1] = molecular target: recombinant human DPPI (Cathepsin C) (Homo sapiens (Human), UniProt P53634); assay: Inhibition of human DPPI (Cathepsin C); assay type: biochemical; conditions: substrate Gly-Arg-AMC
Summary of the method: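 Recombinant human DPPI in MES buffer pH 6.0 (5 mM DTT, 0.1% BSA); fluorogenic substrate at 50 μM final, 30 min at room temperature, stopped with 1 μM Gly-Phe-DMK. Background-subtracted fluorescence expressed as percent of vehicle control; IC50 derived.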

[2] = Determination of metabolic stability with human liver microsomes; conditions: pooled human liver microsomes; for half-life at 1 μM: human, pH 7.6
[3] = molecular target: recombinant human Cathepsin K (Homo sapiens (Human), UniProt P43235); assay: Inhibition of human Cathepsin K; assay type: biochemical; conditions: substrate Z-Gly-Pro-Arg-AMC
Summary of the method: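 Proenzyme activated in pH 3.5 sodium acetate for 30 min at room temperature. Enzyme (2 ng/μL final) preincubated 10 min with compound (0.1 nM–100 μM, 1% DMSO) in pH 5.5 acetate/EDTA/L-cysteine buffer, then reacted 60 min at room temperature with Z-Gly-Pro-Arg-AMC. Stopped with 1 μM E64; fluorescence Ex 360/Em 460 nm; IC50 from background-subtracted percent of vehicle control.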

recombinant human DPPI (Cathepsin C), sequence (P53634 231-394): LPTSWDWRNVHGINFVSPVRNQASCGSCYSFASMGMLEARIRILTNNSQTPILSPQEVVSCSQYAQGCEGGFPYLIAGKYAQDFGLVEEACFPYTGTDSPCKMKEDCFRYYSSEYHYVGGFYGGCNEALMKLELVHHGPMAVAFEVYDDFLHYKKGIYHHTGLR
recombinant human DPPI (Cathepsin C), sequence (P53634 395-463): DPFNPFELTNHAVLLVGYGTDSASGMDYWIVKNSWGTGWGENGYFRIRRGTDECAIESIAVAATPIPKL
recombinant human DPPI (Cathepsin C), sequence (P53634 25-134): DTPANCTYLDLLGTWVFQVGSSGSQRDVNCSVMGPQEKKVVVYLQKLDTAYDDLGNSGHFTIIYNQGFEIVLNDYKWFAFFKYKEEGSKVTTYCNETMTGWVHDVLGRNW
recombinant human Cathepsin K, sequence (P43235 115-329): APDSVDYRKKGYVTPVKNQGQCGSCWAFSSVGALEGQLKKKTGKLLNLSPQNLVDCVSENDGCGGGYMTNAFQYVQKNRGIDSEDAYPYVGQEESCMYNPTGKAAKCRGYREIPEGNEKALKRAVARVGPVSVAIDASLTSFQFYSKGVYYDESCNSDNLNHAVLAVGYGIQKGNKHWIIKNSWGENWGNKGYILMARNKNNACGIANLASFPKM

Structure (SMILES) | IC50 [1] [nM] | half-life at 1 μM [2] [h] | IC50 [3] [nM] | In vitro stability in human liver microsome incubations t½ ([2]; 1 μM test compound, 37° C., NADPH) [h]
N#CC(Cc1ccc(-c2ccc(C(N)=O)cc2)cc1F)NC(=O)[C@H]1N[C@@H]2CC[C@H]1C2 (stereo partly drawn) [Example 83] | 13.3 | > 2.17 | 5100 | 
CN1CCc2cc(-c3ccc(C[C@@H](C#N)NC(=O)[C@H]4N[C@@H]5CC[C@H]4C5)c(F)c3)ccc2C1=O [Example 42] | 5.3 | > 2.17 | 2900 | 
N#C[C@H](Cc1ccc(N2CCN3CCOC[C@H]3C2)cc1F)NC(=O)[C@H]1N[C@@H]2CC[C@H]1C2 [Example 250] | 4.2 | > 2.17 | 3100 | 
N#CC(Cc1ccc(-c2cnc(Cl)cn2)cc1F)NC(=O)[C@H]1N[C@@H]2CC[C@H]1C2 (stereo partly drawn) [Example 102] | 24.8 | > 2.17 | 4300 | 
CS(=O)(=O)c1ccc(-c2ccc(CC(C#N)NC(=O)[C@H]3N[C@@H]4CC[C@H]3C4)c(F)c2)cc1 (stereo partly drawn) [Example 54] | 8.2 | > 2.17 | 4500 | 
CN1CCC2(CC1)CC(c1ccc(C[C@@H](C#N)NC(=O)[C@H]3N[C@@H]4CC[C@H]3C4)c(F)c1)C2 [Example 358] | 22 | > 2.17 | 9600 | 
CS(=O)(=O)c1cc(-c2ccc(C[C@@H](C#N)NC(=O)[C@H]3N[C@@H]4CC[C@H]3C4)c(F)c2)ccc1F [Example 152] | 2.1 | > 2.17 | 6100 | 
CCOCc1cn(-c2ccc(C[C@@H](C#N)NC(=O)[C@H]3N[C@@H]4CC[C@H]3C4)c(F)c2)nn1 [Example 105] | 25 | > 2.17 | 5200 | 
CN1C(=O)Cc2ccc(-c3cc(F)c(C[C@@H](C#N)NC(=O)[C@H]4N[C@@H]5CC[C@H]4C5)cc3F)cc21 [Example 31] | 4.3 | 1.5 | 7300 | 
CN(C)CC1CCCN(c2ccc(C[C@@H](C#N)NC(=O)[C@H]3N[C@@H]4CC[C@H]3C4)c(F)c2)C1 (stereo partly drawn) [Example 345] | 18.4 | > 2.17 | 9200 | 
N#CC(Cc1cc2c(=O)[nH]c3ccccc3c2cc1F)NC(=O)[C@H]1N[C@@H]2CC[C@H]1C2 (stereo partly drawn) [Example 294] | 1.6 | > 2.17 | 2200 | 
CS(=O)(=O)c1ccc(-c2ccc(C[C@@H](C#N)NC(=O)[C@H]3N[C@@H]4CC[C@H]3C4)c(F)c2)cc1F [Example 12] | 1.9 | > 2.17 | 2100 | 
N#C[C@H](Cc1ccc(-c2ccc(=O)n(CC(F)F)c2)cc1F)NC(=O)[C@H]1N[C@@H]2CC[C@H]1C2 [Example 343] | 4.5 | > 2.17 | 5300 | 
N#CC(Cc1ccc2c(cnc3cc(F)ccc32)c1)NC(=O)[C@H]1N[C@@H]2CC[C@H]1C2 (stereo partly drawn) [Example 315, (1S,2S,4R)—N-[1-cyano-2-(3-fluorophenanthridin-8-yl)ethyl]-3-azabicyclo[2.2.1]heptane-2-carboxamide] | 13.5 | 1.53 | > 30000 | 
CC(C)N1CCCN(c2ccc(C[C@@H](C#N)NC(=O)[C@H]3N[C@@H]4CC[C@H]3C4)c(F)c2)CC1 [Example 267] | 10.5 | > 2.17 | 4700 | 
N#C[C@H](Cc1ccc(-c2ccc3c(c2)NC(=O)C3)cc1F)NC(=O)[C@H]1N[C@@H]2CC[C@H]1C2 [Example 29] | 4.2 | > 2.17 | 1400 | 
N#C[C@H](Cc1ccc(-c2cccc(C(N)=O)c2)cc1F)NC(=O)[C@H]1N[C@@H]2CC[C@H]1C2 [Example 244] | 3.7 | 1.53 | 2000 | 
CS(=O)(=O)c1cccc(-c2ccc(CC(C#N)NC(=O)[C@H]3N[C@@H]4CC[C@H]3C4)c(F)c2)c1 (stereo partly drawn) [Example 88] | 15.2 | > 2.17 | 8800 | 
N#C[C@H](Cc1ccc(-c2ccc(C(N)=O)o2)cc1F)NC(=O)[C@H]1N[C@@H]2CC[C@H]1C2 [Example 167] | 3.4 | > 2.17 | 6300 | 
CN1CCN(C(=O)c2ccc(-c3ccc(C[C@@H](C#N)NC(=O)[C@H]4N[C@@H]5CC[C@H]4C5)c(F)c3)cc2)CC1 [Example 185] | 9 | > 2.17 | 1700 | 
N#C[C@H](Cc1ccc(-c2cc(C(N)=O)co2)cc1F)NC(=O)[C@H]1N[C@@H]2CC[C@H]1C2 [Example 239] | 3.4 | > 2.17 | 2000 | 
N#Cc1ccc(-c2ccc(C[C@@H](C#N)NC(=O)[C@H]3N[C@H]4C[C@@H]3[C@@H]3C[C@@H]34)c(F)c2)cc1F [Example 132] | 18.9 | > 2.17 | 12200 | 

Structure (SMILES) | IC50 [1] [nM] | half-life at 1 μM [2] [h] | IC50 [3] [nM] | In vitro stability in human liver microsome incubations t½ ([2]; 1 μM test compound, 37° C., NADPH) [h]
N#C[C@H](Cc1ccc(-c2cc[nH]n2)cc1F)NC(=O)[C@H]1N[C@@H]2CC[C@H]1C2 [Example 114] | 36.7 | > 2.17 | 6800 | 
N#C[C@H](Cc1ccc(-c2cnn(C[C@@H]3CCOC3)c2)cc1F)NC(=O)[C@H]1N[C@@H]2CC[C@H]1C2 [Example 262] | 6.4 | > 2 | 2800 | 
N#CC(Cc1cc2c(=O)[nH]c3cc(F)ccc3c2cc1F)NC(=O)[C@H]1N[C@@H]2CC[C@H]1C2 (stereo partly drawn) [Example 293] | 1.3 | > 2.17 | 2700 | 
N#C[C@H](Cc1ccc(-c2cc(C(=O)N3CCn4nccc4C3)co2)cc1F)NC(=O)[C@H]1N[C@@H]2CC[C@H]1C2 [Example 240] | 6.1 | 1.83 | 9400 | 
CC(=O)N1CCN(C(=O)c2cc(-c3ccc(C[C@@H](C#N)NC(=O)[C@H]4N[C@@H]5CC[C@H]4C5)c(F)c3)cs2)CC1 [Example 231] | 2.2 | > 2.17 | 2400 | 
C[S+]([O-])c1ccc(-c2ccc(C[C@@H](C#N)NC(=O)[C@H]3N[C@@H]4CC[C@H]3C4)c(F)c2)cc1 (stereo partly drawn) [Example 274] | 6.5 | > 2.08 | 3500 | 
N#CC(Cc1ccc(-c2ccc(Cl)nn2)cc1F)NC(=O)[C@H]1N[C@@H]2CC[C@H]1C2 (stereo partly drawn) [Example 108] | 26.4 | > 2.17 | 9400 | 
CNc1nc2cc(-c3ccc(C[C@@H](C#N)NC(=O)[C@H]4N[C@@H]5CC[C@H]4C5)c(F)c3)ccc2n1C [Example 253] | 11 | > 2.17 | 5700 | 
N#CC(Cc1ccc(-c2cnn(-c3ccccc3)c2)cc1F)NC(=O)[C@H]1N[C@@H]2CC[C@H]1C2 (stereo partly drawn) [Example 78] | 12 |  | 6700 | 2.17
CS(=O)(=O)N1CCN(c2ccc(C[C@@H](C#N)NC(=O)[C@H]3N[C@@H]4CC[C@H]3C4)c(F)c2)CC1 [Example 91] | 17 | > 2.17 | 2500 | 
N#C[C@H](Cc1ccc(-c2cnn(C[C@@H]3CCCO3)c2)cc1F)NC(=O)[C@H]1N[C@@H]2CC[C@H]1C2 [Example 261] | 4.2 | > 2.17 | 3800 | 
CC(=O)N1CCC(Cn2cc(-c3ccc(C[C@@H](C#N)NC(=O)[C@H]4N[C@@H]5CC[C@H]4C5)c(F)c3)cn2)CC1 [Example 55] | 8.2 | > 2.17 | 3900 | 
CN1CCC2CN(c3ccc(C[C@@H](C#N)NC(=O)[C@H]4N[C@@H]5CC[C@H]4C5)c(F)c3)CC21 (stereo partly drawn) [Example 349] | 20.6 | > 2.17 | 5000 | 
CS(=O)(=O)Nc1cccc(-c2ccc(C[C@@H](C#N)NC(=O)[C@H]3N[C@H]4C[C@@H]3[C@@H]3C[C@@H]34)c(F)c2)c1 [Example 139] | 11.7 | > 2.17 | 4800 | 
CC(C)C(O)Cc1cn(-c2ccc(C[C@@H](C#N)NC(=O)[C@H]3N[C@@H]4CC[C@H]3C4)c(F)c2)nn1 (stereo partly drawn) [Example 109] | 26.9 | > 2.17 | 4500 | 
CN1CCN(C(=O)c2cccc(-c3ccc(C[C@@H](C#N)NC(=O)[C@H]4N[C@@H]5CC[C@H]4C5)c(F)c3)c2)CC1 [Example 245] | 5.9 | > 2.17 | 1200 | 
CN1C(=O)C(C)(C)c2ccc(-c3ccc(C[C@@H](C#N)NC(=O)[C@H]4N[C@@H]5CC[C@H]4C5)c(F)c3)cc21 [Example 199] | 16 | 1.47 | 11700 | 
N#CC(Cc1cc2c(=O)[nH]c3ccc(F)cc3c2cc1F)NC(=O)[C@H]1N[C@@H]2CC[C@H]1C2 (stereo partly drawn) [Example 295] | 2.1 | > 2.17 | 4700 | 
N#C[C@H](Cc1ccc(-c2cnn(CC3CCOCC3)c2)c(F)c1F)NC(=O)[C@H]1N[C@@H]2CC[C@H]1C2 [Example 218] | 18.9 | > 2.17 | 26000 | 
CN1CC2(C1)CN(c1ccc(C[C@@H](C#N)NC(=O)[C@H]3N[C@@H]4CC[C@H]3C4)c(F)c1)C2 [Example 330] | 7.8 | > 2.17 | 6600 | 
CN1Cc2cc(-c3ccc(CC(C#N)NC(=O)[C@H]4N[C@@H]5CC[C@H]4C5)c(F)c3)ccc2C1=O (stereo partly drawn) [Example 76] | 11.7 | 1.4 | 5300 | 
COc1ccc(-c2cn(-c3ccc(C[C@@H](C#N)NC(=O)[C@H]4N[C@@H]5CC[C@H]4C5)c(F)c3)nn2)cc1OC [Example 77] | 11.9 | > 2.17 | 5300 | 

From patent US8987249B2, “Substituted 2-Aza-bicyclo[2.2.1]heptane-3-carboxylic acid (benzyl-cyano-methyl)-amides inhibitors of Cathepsin C” (Boehringer Ingelheim International GmbH, priority 2013, dated 2015)
